Results on one compound are retold here after paper PMC4455115, “A new arylbenzofuran derivative functions as an anti-tumour agent by inducing DNA damage and inhibiting PARP activity” (Scientific Reports, 2015).

For the assay, the target named is T1, PARP-1 (Homo sapiens, UniProt P09874).
T1 construct: gene PARP1
In words: HT Universal Colorimetric PARP Assay Kit (Trevigen), in vitro PARP-1 activity. The format is biochemical.

T1 sequence (P09874 2-1014): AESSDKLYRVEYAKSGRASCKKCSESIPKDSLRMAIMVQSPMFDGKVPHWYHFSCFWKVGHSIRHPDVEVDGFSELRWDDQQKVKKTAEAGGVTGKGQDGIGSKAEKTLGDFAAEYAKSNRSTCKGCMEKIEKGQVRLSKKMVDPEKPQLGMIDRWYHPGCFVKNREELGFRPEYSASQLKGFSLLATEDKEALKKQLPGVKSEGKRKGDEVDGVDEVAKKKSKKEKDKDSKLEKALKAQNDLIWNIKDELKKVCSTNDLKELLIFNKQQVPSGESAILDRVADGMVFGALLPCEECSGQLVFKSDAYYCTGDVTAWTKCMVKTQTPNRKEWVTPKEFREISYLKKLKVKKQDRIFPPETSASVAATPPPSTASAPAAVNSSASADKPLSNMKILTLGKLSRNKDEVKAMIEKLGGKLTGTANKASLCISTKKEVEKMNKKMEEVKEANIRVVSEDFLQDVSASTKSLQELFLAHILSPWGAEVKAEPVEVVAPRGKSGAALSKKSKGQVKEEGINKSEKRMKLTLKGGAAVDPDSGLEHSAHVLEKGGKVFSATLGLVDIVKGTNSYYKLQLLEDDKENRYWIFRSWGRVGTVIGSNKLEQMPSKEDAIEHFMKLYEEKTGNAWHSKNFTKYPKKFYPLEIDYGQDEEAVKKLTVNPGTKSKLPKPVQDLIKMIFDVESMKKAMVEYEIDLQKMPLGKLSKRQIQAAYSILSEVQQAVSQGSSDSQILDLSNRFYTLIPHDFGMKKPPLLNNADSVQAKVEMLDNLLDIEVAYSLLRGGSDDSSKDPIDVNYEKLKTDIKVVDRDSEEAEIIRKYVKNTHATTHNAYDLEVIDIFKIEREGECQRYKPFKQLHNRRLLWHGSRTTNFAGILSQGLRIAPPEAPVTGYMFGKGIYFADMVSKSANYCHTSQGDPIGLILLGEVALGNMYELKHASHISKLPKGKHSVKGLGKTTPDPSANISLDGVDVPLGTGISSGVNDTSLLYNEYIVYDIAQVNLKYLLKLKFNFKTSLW

As to `COc1ccc(-c2cc3cc(OC)cc(O)c3o2)cc1` [HDAB], it took 154 µM to reach half-maximal inhibition (IC50).

By IC50 is commonly meant the concentration at which inhibition is half-maximal. A low value points to higher potency.
